Experimental findings from patent US12478605B2, “Biochanin a derivatives for treatment of BEST1-related retinopathies” (Universität Regensburg, priority 2020, dated 2025) are described below.

Residue numbers refer to the chain shown, from its start.

What all share (type): cell-based
The target of test [1] is T1, mutant BEST1 R218C (Homo sapiens, UniProt O76090, R218C).
T1 construct: expressed in transfected cells
T1 sequence (O76090 1-585 R218C): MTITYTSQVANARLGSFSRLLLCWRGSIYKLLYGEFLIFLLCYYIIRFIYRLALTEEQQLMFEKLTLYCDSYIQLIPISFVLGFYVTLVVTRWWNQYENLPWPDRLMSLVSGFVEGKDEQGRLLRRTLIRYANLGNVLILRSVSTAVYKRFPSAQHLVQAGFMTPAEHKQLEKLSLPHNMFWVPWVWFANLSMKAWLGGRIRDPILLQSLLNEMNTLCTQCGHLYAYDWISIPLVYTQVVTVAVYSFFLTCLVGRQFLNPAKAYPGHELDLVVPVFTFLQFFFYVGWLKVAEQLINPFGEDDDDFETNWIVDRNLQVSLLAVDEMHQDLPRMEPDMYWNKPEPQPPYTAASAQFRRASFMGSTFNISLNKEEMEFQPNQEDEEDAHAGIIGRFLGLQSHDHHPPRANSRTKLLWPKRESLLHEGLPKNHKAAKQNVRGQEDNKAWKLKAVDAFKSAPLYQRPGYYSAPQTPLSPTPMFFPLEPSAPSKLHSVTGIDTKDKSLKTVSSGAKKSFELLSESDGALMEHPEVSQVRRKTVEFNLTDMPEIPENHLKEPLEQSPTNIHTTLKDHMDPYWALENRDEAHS
Nature of the test: YFP-halide transport assay (I- influx), MDCKII cells expressing mutant BEST1-R218C. As to the method: Human hiPSC-RPE or MDCKII cells were transduced via lentivirus particles which were produced by co-transfecting HEK293T cells with the yellow fluorescence protein (YFPH148Q/I152L)-pLJM1 and helper plasmids pMD2.G and psPAX2 using the Ca^2+ phospate transfection method. After six weeks of cultivation in 96-well black microtiter plates, cells were incubated with 100 mM Cl^− containing solution and basal YFP fluorescence was measured in a Tecan microplate reader. Subsequently Cl^− was replaced with equimolar I^− and decrease of YFP fluorescence intensity was monitored for another 2 min in 10 sec intervals.
To analyze BEST1-mediated anion transport in the cell lines generated in the previous examples, a well-established halide transport assay (Galietta et al., 2001) was adapted. […] Addition of I— leads to specific YFP quenching over time and changes of fluorescence intensities can be monitored on a plate reader. MDCKII cells were incubated with 100 mM Cl— containing solution and steady state YFP fluorescence signal intensities were measured after 6 minutes. Subsequently, Cl— was replaced by equimolar I— and anion permeability was monitored by decreasing YFP intensities as a result of BEST1-mediated I— influx in a time course up to 2 minutes (FIG. 2B). For several independent BEST1 wildtype cell lines a fast kinetic of decreasing fluorescence intensities to ˜30 to 40% was observed while the untransfected control cell lines remained flat (FIGS. 2C and D).
Example 8—Evaluation of BioA(C2H3O2)2 activity in MDCKII cells MDCKII cells co-expressing YFP and BEST1 wildtype or mutant p.(R218C) were seeded on black 96-well plates and cultivated for 6 days to achieve polarity, a requirement for correct basolateral localization of BEST1 in epithelial cells. Compounds were tested separately at 10 μM concentration in a 96-well format. After compound addition for 24 h, cells were subjected to an inwardly directed I— gradient to drive I— influx and produce decreasing (quenched) fluorescence signals. […]

In the next test the target is T2, BEST-Y227N (Homo sapiens, UniProt O76090, Y227N).
T2 construct: expressed in transfected cells
T2 sequence (O76090 1-585 Y227N): T1 sequence (O76090 1-585 R218C) with C218R, Y227N
Nature of the test: YFP-halide transport assay (I- influx), MDCKII cells expressing mutant BEST-Y227N. To be noted: various concentrations from 2 μM to 20 μM, 24 h, FIG. 4C.

For test [2], the target named is T1, mutant BEST1 R218C. Nature of the test: YFP-based I- efflux assay in MDCKII cells co-expressing YFP and mutant BEST1 R218C. To be noted: 5 μM, compound addition for 24 h, FIGS. 6-8. On the procedure: MDCKII cells co-expressing yellow fluorescence protein (YFP) and mutant BEST1 R218C were seeded on black 96-well plates and cultivated for 6 days to achieve polarity, a crucial requirement for correct basolateral localization of BEST1 in epithelial cells. Compounds were tested at 5 μM concentration in a 96-well format. After compound addition for 24 h, cells were subjected to an outwardly directed iodid (I^−)-gradient to drive BEST1-mediated I^− efflux and produce increasing fluorescence signals. Each assay consisted of recording of YFP quenching after I^− pre-incubation for 6 min (=100% value), followed by 7 min of recording of increasing fluorescence after addition of the chloride (Cr) containing solution. Changes of fluorescence intensities were monitored on a plate reader. The effect on the kinetics of I— efflux was tested for Biochanin A (FIG. 6A), Trimethoxyisoflavone (FIG. 6B), 5,4-dimethoxy hydroxyisoflavone (FIG. 6C), Biochanin A-7-methyl ether (FIG. 6D), Biochanin A-7-acetate (FIG. 6E), Biochanin A diacetate (FIG. 6F), Biochanin A-7-pentanoate (FIG. 6G), Biochanin A dipentanoate (FIG. 6H), Biochanin A-7-pivalate (FIG. 7A), Biochanin A-dipavalate (FIG. 7B), Biochanin A-7-acrylate (FIG. 7C), Biochanin A diacrylate (FIG. 7D), Biochanin A-7-methyl fumarate (FIG. 7E), Biochanin A-di(methyl fumarate) (FIG. 7F), Biochanin A-7-butylcarbamate (FIG. 7G), Biochanin A di(butylcarbamate) (FIG. 7H), Biochanin A-7-phosphate disodium salt (FIG. 8A), Biochanin A-7-isopropylate (FIG. 8B), 7-pivaloxymethyl-Biochanin A (FIG. 8C), Biochanin A diisopropylate (FIG. 8D), Biochanin A-7-isopropyl carbonate (FIG. 8E), Biochanin A diisopropyl carbonate (FIG. 8F), Isopropyloxycarbonylmethoxy-Biochanin A (FIG. 8G).

For `COc1ccc(-c2coc3cc(OC(C)=O)cc(OC(C)=O)c3c2=O)cc1` [Biochanin A diacetate, 3-(4-Methoxyphenyl)-4oxo-4H-chromene-5,7-diyl diacetate], the “effect on BEST1 anion transport activity” value on mutant BEST1 R218C [1] (MDCKII cells, FIG. 4A, comparison of Biochanin A derivatives) is given as “greatest effect”. The “anion transport activity (I- influx)” value at mutant BEST1 R218C [1] (MDCKII mutant BEST1-R218C, various concentrations from 2 μM to 20 μM, 24 h, FIG. 4C) is reported as “strongly”; at BEST-Y227N it was “moderately increased”. Also, the “anion transport activity (kinetics of I- efflux) in comparison to untreated cells” value on mutant BEST1 R218C [2] was “strongly increased”.
